Measured values as given in patent publication US20150322527A1, “TRANSCRIPTIONAL PROFILING AND BIOMARKER-BASED METHODS FOR IDENTIFYING AND EVALUATING AGENTS FOR ANTIOXIDANT EFFICACY IN COSMETIC SKIN CARE FORMULATIONS” (The Procter & Gamble Company, priority 2010, published 2015).

Tested on: Nrf2-mediated transcription off the antioxidant response element (ARE)
Experiment: ARE activation assay (ARE32 luciferase reporter cell line)
Format: cell-based
Conditions: 24 hrs
Text: An ARE reporter cell line may be developed and used to screen for compounds that increase transcription off the ARE in response to oxidative stress, resulting in an increase in cellular antioxidant defense proteins. An ARE32 reporter cell line was adapted to provide an assay for cosmetic agents which may increase transcription off the ARE and increase expression of Phase 2 enzymes, thus augmenting the body's own antioxidant response. ARE32 is a stable reporter cell line produced by CXR Biosciences by transfecting MCF7 cells with pGL8x-ARE (8 copies of the rat GST ARE linked to the luciferase gene) and pCDNA3.1 which contains the neomycin selectable marker. Selection is performed in the presence of G418 and resistant clones are isolated and screened for induction of luciferase. An exemplary standard is tert-butyl hydroquinone (tBHQ), a known activator of Nrf2. ARE32 is a stable MCF7 cell line containing pGL8x-ARE (8 copies of the rat GST ARE linked to the luciferase gene) and pCDNA3.1 which contains the neomycin selectable marker, which was licensed from CXRbiosciences. Selection was performed in the presence of G418 and resistant clones were isolated. Clones were screened for induction of luciferase in response to tBHQ. ARE32 cells are maintained routinely in the DMEM (phenol red free) containing: • 10% FBS • 50 units/ml penicillin & 50 μg/ml streptomycin • 0.8 mg/ml G418 • Cells are subcultured every 3-4 days. […] Induction of Luciferase with tBHQ • 1. In a 96 well-plate, seed 1×10^4 cells/well in 100 μl DMEM containing 50 units/ml penicillin, 50 μg/ml streptomycin, 0.8 mg/ml G418 and 10% FBS. • 2. Incubate the cells at 37° C. in a 5% CO2 incubator for 24 hrs. • 3. […] (10 mM tBHQ of stock solution was freshly prepared in DMSO) • 4. Add 100 ul of media after treatment, final assay volume 200 uL. • 5. Incubate the cells at 37° C. in CO2 incubator for another 24 hrs. • 6. Assay for luciferase activity with Steady-glo Assay System by following the manufacture's instruction: • a. Remove 100 μL of media • b. Add 100 μl of reconstituted substrate directly to well • c. Incubate 5-10 min shaking. • d. […] Read plate for 5 seconds per well. The ARE activation assay described in Example 3 is employed. To test for transcription off the antioxidant response element, the reporter line is grown, compounds are added, each compound in varying doses, and allowed to incubate for 24 hours. Cells are then lysed and luminescent output is detected and quantified. […] Proposed compounds are screened using the ARE assay set forth in Example 3, above. Table 4 illustrates “ARE screening hits” along with concentrations tested for each compound and the observed percent increase in ARE. […]

Molecule: CCCCCC/C=C/C#CCCCCCCCC(=O)O [Xymenynic acid]
- ARE (% control) (concentration tested 200 μM): 329 % control

Molecule: Umbelliferin
- ARE (% control) (concentration tested 0.01%): 1815 % control

Molecule: O=C(O)CCCCC1CCSS1 (stereo not drawn) [Alpha-lipoic acid]
- ARE (% control) (concentration tested 200 μM): 534 % control

Molecule: O=C(/C=C/c1ccc(O)c(O)c1)O[C@H](Cc1ccc(O)c(O)c1)C(=O)O [Rosmarinic acid]
- ARE (% control) (concentration tested 200 μM): 1211 % control
